Laboratory results reported in PMC7393338 (Acta Pharmacologica Sinica, 2020).

Legend:
[1] = intratracheal administration versus other routes, rats
SARS-CoV-2 PLpro = SARS-CoV-2 PLpro (Severe acute respiratory syndrome coronavirus 2, UniProt P0DTD1); assay: biochemical; settings: read-out: PLpro Inhibition (%)

With O=c1cc(-c2ccccc2)oc2cc(O)c(O)c(O)c12 [Baicalein] the “target tissue (lung) distribution” value [1] was “significantly increase their target tissue distribution” and the inhibition at 50 µM (SARS-CoV-2 PLpro) was less than 50%.
